# Measurements taken from ChEMBL document CHEMBL1201862, “PubChem BioAssay data set” (2004).
#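 96-well plates; 48 h exposure; 5 concentrations. Endpoints by linear interpolation between flanking doses. Not reached: highest tested concentration assigned. The concentration for 50% growth inhibition is given as GI50.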 Active and inactive are the calls of the source. Cut-off read from the data, not from the text of the source: active = GI50 up to about 1.1 µM and inactive = higher.
# Columns and labels:
# Assay in all cases: growth of human tumour cells (NCI), 48 h
# [1] = system: A498
# [2] = system: BT-549
# [3] = system: CAKI-1
# [4] = system: HCT-15
# [5] = system: HL-60
# [6] = system: LOX IMVI
# [7] = system: MCF7
# [8] = system: MDA-MB-231
# [9] = system: MDA-MB-435
# [10] = system: MDA-N
# [11] = system: MOLT-4
# [12] = system: NCI-H226
# [13] = system: OVCAR-4
# [14] = system: OVCAR-8
# [15] = system: PC-3
# [16] = system: RPMI-8226
# [17] = system: RXF 393
# [18] = system: SN12C
# [19] = system: SNB-19
# [20] = system: SNB-75
SMILES,GI50 [1],GI50 [2],GI50 [3],GI50 [4],GI50 [5],GI50 [6],GI50 [7],GI50 [8],GI50 [9],GI50 [10],GI50 [11],GI50 [12],GI50 [13],GI50 [14],GI50 [15],GI50 [16],GI50 [17],GI50 [18],GI50 [19],GI50 [20]
O=C1c2ccccc2-c2cc([N+](=O)[O-])c([N+](=O)[O-])cc21,17.2 µM (inactive),1.92 µM (inactive),2.47 µM (inactive),1.78 µM,0.564 µM (active),0.861 µM (active),1.38 µM (inactive),1.8 µM (inactive),1.65 µM (inactive),2.35 µM (inactive),0.482 µM (active),4.21 µM (inactive),1.81 µM (inactive),1.64 µM (inactive),1.55 µM (inactive),1.04 µM (active),1.33 µM (inactive),1.86 µM (inactive),1.71 µM (inactive),1.82 µM (inactive)
CC(=O)N1CC[N+](C)(CCCCN2c3ccccc3Sc3cc(N=[N+]=[N-])ccc32)CC1,> 100 µM (inactive),> 100 µM (inactive),> 100 µM (inactive),> 100 µM,86.5 µM (inactive),> 100 µM (inactive),> 100 µM (inactive),> 100 µM (inactive),> 100 µM (inactive),> 100 µM (inactive),> 100 µM (inactive),> 100 µM (inactive),18 µM (inactive),> 100 µM (inactive),> 100 µM (inactive),> 100 µM (inactive),> 100 µM (inactive),> 100 µM (inactive),> 100 µM (inactive),> 100 µM (inactive)
COc1ccc([C@]23CCC4(OCC(C)(C)CO4)[C@H]4CON(O[C@H](O[C@@H]5CCCCC5C(C)(C)c5ccccc5)C2)[C@@H]43)cc1OC (stereo not given in full),48.1 µM (inactive),69 µM (inactive),13.6 µM (inactive),37.8 µM,20.6 µM (inactive),57.5 µM (inactive),30.1 µM (inactive),81.7 µM (inactive),25.9 µM (inactive),28.8 µM (inactive),17.7 µM (inactive),58.6 µM (inactive),26.1 µM (inactive),60 µM (inactive),39.6 µM (inactive),26.9 µM (inactive),25.4 µM (inactive),61.1 µM (inactive),61.7 µM (inactive),41.5 µM (inactive)
Cc1ccc(Cc2n[nH]c(=O)n2/N=C\CC/C=N\n2c(Cc3ccc(C)cc3)n[nH]c2=O)cc1,90.4 µM (inactive),23 µM (inactive),> 100 µM (inactive),26 µM,14.6 µM (inactive),16.9 µM (inactive),23.9 µM (inactive),31.3 µM (inactive),36.3 µM (inactive),37.1 µM (inactive),19.1 µM (inactive),24.4 µM (inactive),> 100 µM (inactive),17.8 µM (inactive),31.3 µM (inactive),57.9 µM (inactive),20.9 µM (inactive),44.7 µM (inactive),39.6 µM (inactive),16.6 µM (inactive)
